Laboratory results as given in US7915292B2, “Antibacterial quinoline derivatives” (Janssen Pharmaceutica NV, priority 2005, dated 2011).
Converted amounts (≈) assume the structure as drawn.

Experiments:
M. Smegmatis ATCC607 = assay: In-vitro anti-bacterial activity against strain M. smegmatis ATCC607 (Alamar Blue growth inhibition); type: cell-based; details: 48 hours incubation; for IC50: Mycolicibacterium smegmatis, read-out: M. smegmatis pIC50 (converted)
Method: Serial five-fold dilutions (45 μl in 180 μl) were made directly in the microtiter plates from column 2 to 11 using a customised robot system (Zymark Corp., Hopkinton, Mass.). Pipette tips were changed after every 3 dilutions to minimize pipetting errors with high hydrophobic compounds. Untreated control samples with (column 1) and without (column 12) inoculum were included in each microtiter plate. Approximately 250 CFU per well of bacteria inoculum, in a volume of 100 μl in 2.8× Mueller-Hinton broth medium, was added to the rows […]. The same volume of broth medium without inoculum was added to column 12 in row A to H. The cultures were incubated at 37° C. for 48 hours in a humidified 5% CO2 atmosphere (incubator with open air valve and continuous ventilation). At the end of incubation, two days after inoculation, the bacterial growth was quantitated fluorometrically. Therefore Alamar Blue (10×) was added to all wells in a volume of 20 μl and plates were incubated for another 2 hours at […] The fluorescence was read in a computer-controlled fluorometer (Cytofluor, Biosearch) at an excitation wavelength of 530 nm and an emission wavelength of 590 nm (gain 30). The percentage growth inhibition achieved by the compounds was calculated according to standard methods and expressed as pIC50 values.

ECO 25922 = assay: Microtitre plate assay, IC90 determination, ECO 25922; type: cell-based, E. coli; details: 90% inhibitory concentration for bacterial growth, strain ECO 25922, 24 hours at 37° C.; for IC90: Escherichia coli, read-out: IC90 (μg/ml) ECO 25922
Method: (§1) Stocks (0.5 ml/tube) were stored at -70° C. until use. Bacteria titrations were performed in microtiter plates to detect the TCID50, in which the TCID50 represents the dilution that gives rise to bacterial growth in 50% of inoculated cultures. In general, an inoculum level of approximately 100 TCID50 was used for susceptibility testing. […] Serial five-fold dilutions (45 μl in 180 μl) were made directly in the microtiter plates from column 2 to reach column 11. Untreated control samples with (column 1) and without (column 12) inoculum were included in each microtiter plate. Depending on the bacteria type, approximately 10 to 60 CFU per well of bacteria inoculum (100 TCID50), in a volume of 100 μl in 2.8× Mueller-Hinton broth medium, was added to the rows […]. The same volume of broth medium without inoculum was added to column 12 in row A to H. The cultures were incubated at 37° C. for 24 hours under a normal atmosphere (incubator with open air valve and continuous ventilation). At the end of incubation, one day after inoculation, the bacterial growth was quantitated fluorometrically. Therefore resazurin (0.6 mg/ml) was added in a volume of 20 μl to all wells 3 hours after inoculation, and the plates were re-incubated overnight. A change in colour from blue to pink indicated the growth of bacteria. The fluorescence was read in a computer-controlled fluorometer (Cytofluor Biosearch) at an excitation wavelength of 530 nm and an emission wavelength of 590 nm. The % growth inhibition achieved by the compounds was calculated according to standard methods. The IC90 (expressed in μg/ml) was defined as the 90% inhibitory concentration for bacterial growth.

EFA 29212 = assay: Microtitre plate assay, IC90 determination, EFA 29212; type: cell-based, E. faecalis; details: 90% inhibitory concentration for bacterial growth, strain EFA 29212, 24 hours at 37° C.; for IC90: Enterococcus faecalis, read-out: IC90 (μg/ml) EFA 29212
Method: as §1

LMO 49594 = assay: Microtitre plate assay, IC90 determination, LMO 49594; type: cell-based, Listeria monocytogenes; details: 90% inhibitory concentration for bacterial growth, strain LMO 49594, 24 hours at 37° C.; for IC90: Listeria monocytogenes, read-out: IC90 (μg/ml) LMO 49594
Method: as §1

SMU 33402 = assay: Microtitre plate assay, IC90 determination, SMU 33402; type: cell-based, S. mutans; details: 90% inhibitory concentration for bacterial growth, strain SMU 33402, 24 hours at 37° C.; for IC90: Streptococcus mutans, read-out: IC90 (μg/ml) SMU 33402
Method: as §1

SPN 6305 = assay: Microtitre plate assay, IC90 determination, SPN 6305; type: cell-based, S. pneumoniae; details: 90% inhibitory concentration for bacterial growth, strain SPN 6305, 24 hours at 37° C.; for IC90: Streptococcus pneumoniae, read-out: IC90 (μg/ml) SPN 6305
Method: as §1

SPY 8668 = assay: Microtitre plate assay, IC90 determination, SPY 8668; type: cell-based, S. pyogens; details: 90% inhibitory concentration for bacterial growth, strain SPY 8668, 24 hours at 37° C.; for IC90: read-out: IC90 (μg/ml) SPY 8668
Method: as §1

STA 29213 = assay: Microtitre plate assay, IC90 determination, STA 29213; type: cell-based, S. aureus; details: 90% inhibitory concentration for bacterial growth, strain STA 29213, 24 hours at 37° C.; for IC90: Staphylococcus aureus, read-out: IC90 (μg/ml) STA 29213
Method: as §1

STA RMETH = assay: Microtitre plate assay, IC90 determination, STA RMETH; type: cell-based, S. aureus; details: Staphylococcus aureus; 90% inhibitory concentration for bacterial growth; strain STA RMETH; 24 hours at 37° C.; read-out: IC90 (μg/ml) STA RMETH
Method: as §1

[1] = tested on: Mycobacterium tuberculosis (strain H37RV); assay: In-vitro method for testing compounds against M. tuberculosis (resazurin growth inhibition); type: cell-based; details: 7 days incubation
BSU 43639 = assay: Microtitre plate assay, IC90 determination, BSU 43639; type: cell-based, Bacillus subtilis; details: 90% inhibitory concentration for bacterial growth, strain BSU 43639, 24 hours at 37° C.
Method: as §1

EFA 14506 = assay: Microtitre plate assay, IC90 determination, EFA 14506; type: cell-based, E. faecalis; details: 90% inhibitory concentration for bacterial growth, strain EFA 14506, 24 hours at 37° C.; for IC90: Enterococcus faecalis, read-out: IC90 (μg/ml) EFA 14506
Method: as §1

PAE 27853 = assay: Microtitre plate assay, IC90 determination, PAE 27853; type: cell-based, Pseudomonas aeruginosa; details: 90% inhibitory concentration for bacterial growth, strain PAE 27853, 24 hours at 37° C.; for IC90: Pseudomonas aeruginosa, read-out: IC90 (μg/ml) PAE 27853
Method: as §1

STA 25923 = assay: Microtitre plate assay, IC90 determination, STA 25923; type: cell-based, S. aureus; details: 90% inhibitory concentration for bacterial growth, strain STA 25923, 24 hours at 37° C.; for IC90: Staphylococcus aureus, read-out: IC90 (μg/ml) STA 25923
Method: as §1

SMILES	IC50 (M. Smegmatis ATCC607) [nM]	IC90 (ECO 25922) [µg/mL]	IC90 (EFA 29212) [µg/mL]	IC90 (LMO 49594) [µg/mL]	IC90 (SMU 33402) [µg/mL]	IC90 (SPN 6305) [µg/mL]	IC90 (SPY 8668) [µg/mL]	IC90 (STA 29213) [µg/mL]	IC90 (STA RMETH) [µg/mL]	M. smegmatis pIC50 (M. Smegmatis ATCC607)	IC90 (μg/ml) STA 29213 (STA 29213) [µg/mL]	IC90 (EFA 14506) [µg/mL]	IC90 (PAE 27853) [µg/mL]	IC90 (STA 25923) [µg/mL]	other results
COc1cccc(CN(CCN(C)C)C(c2ccccc2)c2cc3cc(Br)ccc3nc2OC)c1 (stereo not drawn) [Compound 20]	1260	15.7 (≈ 29.4 µM)	15.7 (≈ 29.4 µM)	15.7 (≈ 29.4 µM)	12.5 (≈ 23.4 µM)	15.7 (≈ 29.4 µM)	12.5 (≈ 23.4 µM)	14 (≈ 26.2 µM)	14 (≈ 26.2 µM)	–	–	–	–	–	–
COc1nc2ccc(Br)cc2cc1C(c1ccccc1)N(CCN(C)C)Cc1ccccc1 (stereo not drawn) [Compound 21]	–	–	–	–	–	–	–	–	–	5.8	10.1 (≈ 20 µM)	–	–	–	M. tuberculosis pIC50 [1]: 5.1; IC90 (μg/ml) BSU 43639 (BSU 43639): 10.1 µg/mL (≈ 20 µM); IC90 (μg/ml) ECO 25922 (ECO 25922): 12.7 µg/mL (≈ 25.2 µM); IC90 (μg/ml) EFA 14506 (EFA 14506): 10.1 µg/mL (≈ 20 µM); IC90 (μg/ml) EFA 29212 (EFA 29212): 12.7 µg/mL (≈ 25.2 µM); IC90 (μg/ml) LMO 49594 (LMO 49594): 12.7 µg/mL (≈ 25.2 µM); IC90 (μg/ml) PAE 27853 (PAE 27853): 12.7 µg/mL (≈ 25.2 µM); IC90 (μg/ml) SMU 33402 (SMU 33402): 10.1 µg/mL (≈ 20 µM); IC90 (μg/ml) SPN 6305 (SPN 6305): 12.7 µg/mL (≈ 25.2 µM); IC90 (μg/ml) SPY 8668 (SPY 8668): 10.1 µg/mL (≈ 20 µM); IC90 (μg/ml) STA 25923 (STA 25923): 11.3 µg/mL (≈ 22.4 µM)
COc1nc2ccc(Br)cc2cc1C(c1ccccc1F)N(CCN(C)C)Cc1ccccc1 (stereo not drawn) [Compound 22]	1580	52.2 (≈ 99.9 µM)	10.4 (≈ 19.9 µM)	8.3 (≈ 15.9 µM)	–	–	–	10.4 (≈ 19.9 µM)	–	–	–	41.5 (≈ 79.4 µM)	13.1 (≈ 25.1 µM)	8.3 (≈ 15.9 µM)	IC90 (BSU 43639; Bacillus subtilis, read-out: IC90 (μg/ml) BSU 43639): 41.5 µg/mL (≈ 79.4 µM)
CC(C)N(C)C(=O)CN(Cc1ccccc1)C(c1cccnc1)c1cc2ccccc2nc1-c1ccccc1 (stereo not drawn) [Compound 34]	–	–	–	–	–	–	–	–	–	5.8	51.5 (≈ 100 µM)	–	–	–	–
CN(C)CCN(Cc1ccccc1)C(c1ccccc1)c1cc2cc(Br)ccc2nc1-c1ccccc1 (stereo not drawn) [Compound 51]	1000	13.8 (≈ 25.1 µM)	13.8 (≈ 25.1 µM)	13.8 (≈ 25.1 µM)	6.9 (≈ 12.5 µM)	2.8 (≈ 5.09 µM)	2.8 (≈ 5.09 µM)	11 (≈ 20 µM)	12.3 (≈ 22.3 µM)	–	–	11 (≈ 20 µM)	11 (≈ 20 µM)	12.3 (≈ 22.3 µM)	IC50 ([1]; Mycobacterium tuberculosis, 168 h, read-out: M. tuberculosis pIC50 (converted)): 7940 nM
Cc1ccc2nc(-c3ccccc3)c(C(c3ccccc3)N(CC(=O)NN3CCN(C)CC3)Cc3ccccc3)cc2c1 (stereo not drawn) [Compound 69]	1580	–	–	–	–	–	–	9 (≈ 15.8 µM)	–	–	–	–	–	–	–
